From patent publication US20250084078A1, “FUSED RING-SUBSTITUTED SIX-MEMBERED HETEROCYCLIC COMPOUND, AND PREPARATION METHOD THEREFOR AND USE THEREOF” (GENFLEFT THERAPEUTICS (SHANGHAI) INC., priority 2022, published 2025)

target: HPK1 (Homo sapiens, UniProt Q92918); assay: SLP76 phosphorylation assay (intracellular HPK1 inhibitory activity, p-SLP76 S376 ELISA in Jurkat cells); conditions: p-SLP76 IC50, Jurkat, Clone E6-1 cells; 1 h compound pre-incubation; anti-CD3 beads stimulation 20 min; Phospho-SLP-76 (Ser376) ELISA
Sequence (Q92918 whole entry): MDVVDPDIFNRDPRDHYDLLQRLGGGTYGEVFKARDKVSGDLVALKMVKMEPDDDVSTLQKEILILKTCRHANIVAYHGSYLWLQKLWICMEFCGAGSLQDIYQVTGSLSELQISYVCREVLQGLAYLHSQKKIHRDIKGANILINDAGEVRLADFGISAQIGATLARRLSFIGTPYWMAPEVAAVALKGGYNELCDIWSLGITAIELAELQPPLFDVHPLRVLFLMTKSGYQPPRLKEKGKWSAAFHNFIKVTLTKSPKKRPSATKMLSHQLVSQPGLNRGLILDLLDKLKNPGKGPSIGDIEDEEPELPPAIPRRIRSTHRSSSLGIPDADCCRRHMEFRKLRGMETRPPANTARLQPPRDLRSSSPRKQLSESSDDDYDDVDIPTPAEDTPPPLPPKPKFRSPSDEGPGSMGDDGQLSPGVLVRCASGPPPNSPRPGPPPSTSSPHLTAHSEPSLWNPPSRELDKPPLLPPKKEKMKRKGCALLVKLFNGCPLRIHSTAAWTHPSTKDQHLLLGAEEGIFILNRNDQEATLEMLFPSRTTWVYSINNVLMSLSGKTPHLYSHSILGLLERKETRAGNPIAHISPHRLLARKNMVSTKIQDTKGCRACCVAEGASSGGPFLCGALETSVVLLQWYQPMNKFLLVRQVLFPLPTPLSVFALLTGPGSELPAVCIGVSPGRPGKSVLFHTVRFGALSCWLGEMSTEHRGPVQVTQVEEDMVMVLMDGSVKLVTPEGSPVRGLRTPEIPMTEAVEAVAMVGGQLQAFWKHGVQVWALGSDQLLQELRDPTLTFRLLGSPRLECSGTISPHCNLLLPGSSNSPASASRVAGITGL
Description: SLP76 Phosphorylation Assay
Intracellular HPK1 inhibitory activity was tested by the detection of SLP76 phosphorylation at S376.
Preparation of 1000× drug stock plate: a 1000× compound stock plate was prepared. […] The compound stock plate was sealed with a sealing film and stored in a −20° C. refrigerator for later use.
Preparation of Beads wash buffer: 0.1 mL FBS and 0.4 mL 0.5 M EDTA (with a final concentration of 2 mM) were added to 100 mL PBS and stored in a 4° C. refrigerator for later use.
100× Protease Inhibitor Cocktail in 1/20 total volume was added and stored on wet ice for later use. The buffer was ready to use.
Cell inoculation and dosing: the 1000× drug stock plate was taken and melted at room temperature in the dark. […] Jurkat cells in the logarithmic growth phase were selected and collected. […] The cells were inoculated into a 96-well plate (the volume was 90 μL per well), and a blank control well (without cells inoculation, and in which 110 μL of medium was added) was set. 10 μL of a drug-containing culture medium (10×) was transferred from the 10× drug intermediate plate into the 96-well cell plate (with a final concentration of 0.1% DMSO), and set a DMSO control group (in which 0.1% DMSO was added to the treated cells), a stimulated control group (in which 10 μL of culture medium was added to treat cells) and an unstimulated group (in which 10 μL of culture medium was added to treat cells). The wells were duplicated, gently patted, mixed, and then placed into a 5% CO2 incubator at 37° C. for 1 h.
Anti-CD3 beads stimulation: Dynabeads anti-human CD3 was taken, shaken, and mixed for 60 s. The required volume of beads was pipetted, and an equal volume or at least 1 mL of washing solution was added to wash once. Fresh complete medium was then added to resuspend and adjust the density of the beads to 4×10^7/mL, and the beads were placed on ice for later use. At the end of drug pre-incubation, the cell culture plate was taken out. 10 μL Dynabeads anti-human CD3 was added to each well to treat the cells, and 10 μL the culture medium was added to the unstimulated group. The cell culture plate was shaken to mix well at 2500 rpm for 10 s, and then placed into a 5% CO2 incubator at 37° C. and continued to culture for 20 min.
Detection of p-SLP76 protein level: PathScan Phospho-SLP-76 (Ser376) Sandwich ELISA Kit was applied to detect p-SLP76 protein level. At the end of the Anti-CD3 beads stimulation, the cell culture plate was removed from the incubator. […] After lysis, the cell culture plate was centrifuged at 4° C., 400×g for 5 min. 25 μL of sample and 75 μL of sample diluent were added to each well, and the plate was placed in a 5% CO2 incubator at 37° C. for 2 h. The subsequent detection steps were carried out following the kit instructions, and the absorbance (OD value) of each well was read at 450 nm by a microplate reader.

Row | IC50 [nM] | SMILES
1 | 481 | O=C(N1CCC(O)CC1)N1CCc2cc(-c3cnc4[nH]cc(Cl)c4c3)cc([C@@H]3COCCN3)c2C1 [Compound Z555, (R)-(6-(3-chloro-1H-pyrrolo[2,3-b]pyridin-5-yl)-8-(morpholin-3-yl)-3,4-dihydroisoquinolin-2(1H)-yl)(4-hydroxypiperidin-1-yl)methanone]
2 | 962 | Cc1c[nH]c2ncc(-c3cc4c(c([C@@H]5COCCN5)c3)CN(C(=O)N3CCC(O)CC3)CC4)cc12 [Compound Z556, (R)-(4-hydroxypiperidin-1-yl)(6-(3-methyl-1H-pyrrolo[2,3-b]pyridin-5-yl)-8-(morpholin-3-yl)-3,4-dihydroisoquinolin-2(1H)-yl)methanone]
3 | 936 | Cc1c[nH]c2ncc(-c3cc4c(c([C@@H]5COCCN5)c3)CN(C(=O)N3CCC(O)C3)CC4)cc12 (stereo partly drawn) [Compound Z558, (3-hydroxypyrrolidin-1-yl)(6-(3-methyl-1H-pyrrolo[2,3-b]pyridin-5-yl)-8-((R)-morpholin-3-yl)-3,4-dihydroisoquinolin-2(1H)-yl)methanone]
4 | 147 | Cc1c[nH]c2ncc(-c3cc4c(c([C@@H]5COCCN5)c3)CN(C(=O)N3CCOC5CC53)CC4)cc12 (stereo partly drawn) [Compound Z562, (2-oxa-5-azabicyclo[4.1.0]heptan-5-yl)(6-(3-methyl-1H-pyrrolo[2,3-b]pyridin-5-yl)-8-((R)-morpholin-3-yl)-3,4-dihydroisoquinolin-2(1H)-yl)methanone]
5 | 174 | Cc1c[nH]c2ncc(-c3cc4c(c([C@@H]5COCCN5)c3)CN(C(=O)N3CC5(CCOCC5)C3)CC4)cc12 [Compound Z563, (R)-(6-(3-methyl-1H-pyrrolo[2,3-b]pyridin-5-yl)-8-(morpholin-3-yl)-3,4-dihydroisoquinolin-2(1H)-yl)(7-oxa-2-azaspiro[3.5]nonan-2-yl)methanone]
6 | 245 | Cc1c[nH]c2ncc(-c3cc4c(c([C@@H]5COCCN5)c3)CN(C(=O)N3CCC5(CCOCC5)C3)CC4)cc12 [Compound Z565, (R)-(6-(3-methyl-1H-pyrrolo[2,3-b]pyridin-5-yl)-8-(morpholin-3-yl)-3,4-dihydroisoquinolin-2(1H)-yl)(8-oxa-2-azaspiro[4.5]decan-2-yl)methanone]
7 | 125 | CCc1c[nH]c2ncc(-c3cc4c(c([C@@H]5COCCN5)c3)CN(C(=O)c3cnc(C)nc3)CC4)cc12 [Compound Z567, (R)-(6-(3-ethyl-1H-pyrrolo[2,3-b]pyridin-5-yl)-8-(morpholin-3-yl)-3,4-dihydroisoquinolin-2(1H)-yl)(2-methylpyrimidin-5-yl)methanone]
8 | 154 | CC1(C)CC(O)CN1C(=O)N1CCc2cc(-c3cnc4[nH]cc(Cl)c4n3)cc([C@@H]3COCCN3)c2C1 (stereo partly drawn) [Compound Z569, (6-(7-chloro-5H-pyrrolo[2,3-b]pyrazin-2-yl)-8-((R)-morpholin-3-yl)-3,4-dihydroisoquinolin-2(1H)-yl)(4-hydroxy-2,2-dimethylpyrrolidin-1-yl)methanone]
9 | 122 | C[C@H]1COCCN1C(=O)N1CCc2cc(-c3cnc4[nH]cc(Cl)c4n3)cc([C@@H]3COCCN3)c2C1 [Compound Z573]
10 | 420 | CN1C2CCC1CN(C(=O)N1CCc3cc(-c4cnc5[nH]cc(Cl)c5n4)cc([C@@H]4COCCN4)c3C1)C2 [Compound Z575, (6-(7-chloro-5H-pyrrolo[2,3-b]pyrazin-2-yl)-8-((R)-morpholin-3-yl)-3,4-dihydroisoquinolin-2(1H)-yl)(8-methyl-3,8-diazabicyclo[3.2.1]octan-3-yl)methanone]
11 | 188 | COc1c[nH]c2ncc(-c3cc4c(c([C@@H]5COCCN5)c3)CN(C(=O)C(C)(C)O)CC4)cc12 [Compound Z576, (R)-2-hydroxy-1-(6-(3-methoxy-1H-pyrrolo[2,3-b]pyridin-5-yl)-8-(morpholin-3-yl)-3,4-dihydroisoquinolin-2(1H)-yl)-2-methylpropan-1-one]
